Source: ChEMBL document CHEMBL5247574, “Recent Progress on Bile Acid Receptor Modulators for Treatment of Metabolic Diseases” (J Med Chem, 2016)
Values after ≈ are worked out from the molar mass of the structure shown.

Tests used:
[1] = biological target: T1, G-protein coupled bile acid receptor 1 (Homo sapiens, UniProt Q8TDU6); assay: Agonist activity at human TGR5 transfected in CHO-K1 cells assessed as increase in cAMP production; assay type: cell-based
T1 sequence (Q8TDU6 whole entry): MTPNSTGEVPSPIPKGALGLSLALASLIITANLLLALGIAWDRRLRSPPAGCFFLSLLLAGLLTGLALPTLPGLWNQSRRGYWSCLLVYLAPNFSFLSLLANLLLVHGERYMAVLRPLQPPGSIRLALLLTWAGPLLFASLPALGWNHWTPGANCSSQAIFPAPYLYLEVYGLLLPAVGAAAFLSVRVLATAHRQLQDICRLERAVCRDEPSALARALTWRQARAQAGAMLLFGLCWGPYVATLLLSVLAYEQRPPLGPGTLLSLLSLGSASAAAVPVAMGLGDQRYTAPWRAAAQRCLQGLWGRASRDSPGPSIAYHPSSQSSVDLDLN

[2] = biological target: T1, G-protein coupled bile acid receptor 1; assay: Agonist activity at human TGR5
[3] = Clearance in human liver microsomes; assay type: ADME, Microsome
[4] = biological target: T2, G-protein coupled bile acid receptor 1 (Mus musculus, UniProt Q80SS6); assay: Agonist activity at mouse TGR5
T2 sequence (Q80SS6 whole entry): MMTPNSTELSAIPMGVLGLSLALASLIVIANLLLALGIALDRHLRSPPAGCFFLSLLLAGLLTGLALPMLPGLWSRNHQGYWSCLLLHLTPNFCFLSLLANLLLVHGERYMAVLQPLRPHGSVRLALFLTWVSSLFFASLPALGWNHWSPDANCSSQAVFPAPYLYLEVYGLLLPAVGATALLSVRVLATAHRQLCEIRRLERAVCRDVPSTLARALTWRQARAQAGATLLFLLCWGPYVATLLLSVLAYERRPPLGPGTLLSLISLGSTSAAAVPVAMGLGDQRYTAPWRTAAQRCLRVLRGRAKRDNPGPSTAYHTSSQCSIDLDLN

[5] = Clearance in mouse liver microsomes; assay type: ADME, Microsome
[6] = Aqueous solubility of compound; assay type: physicochemical; conditions: buffer
[7] = biological target: T1, G-protein coupled bile acid receptor 1; assay: Agonist activity at human TGR5 transfected in CHO cells assessed as increase in cAMP production; assay type: cell-based
[8] = biological target: T1, G-protein coupled bile acid receptor 1; assay: Agonist activity at TGR5 in human HEK293 cells assessed as increase in cAMP production; assay type: cell-based
Bile acid receptor [9] = biological target: T3, Bile acid receptor (Homo sapiens, UniProt Q96RI1); assay: Agonist activity at human GST-tagged FXR LBD (193 to 472 residues) by FRET assay
T3 sequence (Q96RI1 whole entry): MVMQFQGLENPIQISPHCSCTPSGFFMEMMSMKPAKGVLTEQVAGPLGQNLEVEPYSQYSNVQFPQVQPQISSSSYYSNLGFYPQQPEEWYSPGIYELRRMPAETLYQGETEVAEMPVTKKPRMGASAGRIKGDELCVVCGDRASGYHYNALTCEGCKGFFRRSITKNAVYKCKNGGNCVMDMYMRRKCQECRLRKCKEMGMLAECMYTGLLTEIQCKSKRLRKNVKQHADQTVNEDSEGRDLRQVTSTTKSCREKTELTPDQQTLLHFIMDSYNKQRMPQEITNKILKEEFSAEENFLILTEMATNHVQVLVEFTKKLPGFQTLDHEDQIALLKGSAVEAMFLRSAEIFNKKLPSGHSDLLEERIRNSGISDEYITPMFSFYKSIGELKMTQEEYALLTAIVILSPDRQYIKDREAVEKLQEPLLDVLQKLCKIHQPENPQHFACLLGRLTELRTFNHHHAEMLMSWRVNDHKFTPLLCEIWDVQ

[10] = biological target: T4, G-protein coupled bile acid receptor 1 (Homo sapiens) (UniProt Q8TDU6); assay: Agonist activity at human TGR5 expressed in human HEK293 cells at 20 uM measured after 5.5 hrs by steady-glo luciferase assay relative to control; assay type: cell-based; conditions: filed as agonist
T4 sequence (whole entry): T1 sequence (Q8TDU6 whole entry)

[11] = biological target: T1, G-protein coupled bile acid receptor 1; assay: Agonist activity at human TGR5 expressed in human HEK293 cells measured after 5.5 hrs by steady-glo luciferase assay; assay type: cell-based
Bile acid receptor [12] = biological target: T3, Bile acid receptor; assay: Agonist activity at FXR (unknown origin)
[13] = biological target: T4, G-protein coupled bile acid receptor 1 (Homo sapiens); assay: Agonist activity at human TGR5 transfected in CHO cells assessed as increase in cAMP production at 100 nM relative to control; assay type: cell-based; conditions: filed as agonist
Bile acid receptor [14] = biological target: T3, Bile acid receptor; assay: Antagonist activity at FXR in human HepG2 cells in presence of CDCA by luciferase reporter assay; assay type: cell-based
[15] = biological target: T5, G-protein coupled bile acid receptor 1 (Mus musculus) (UniProt Q80SS6); assay: In vivo agonist activity at TGR5 in C57/Bl6 mouse assessed as increase in GLP-1 secretion at 30 mg/kg, po relative to control; assay type: functional, organism-based
T5 sequence (whole entry): T2 sequence (Q80SS6 whole entry)

[16] = biological target: T6, Bile acid receptor (Homo sapiens) (UniProt Q96RI1); assay: Agonist activity at FXR (unknown origin) by alphascreen assay; conditions: filed as agonist
T6 sequence (whole entry): T3 sequence (Q96RI1 whole entry)

Bile acid receptor [17] = biological target: T3, Bile acid receptor; assay: Antagonist activity at FXR (unknown origin) by HTFR assay
[18] = biological target: T7, G-protein coupled bile acid receptor 1 (Rattus norvegicus) (UniProt Q80T02); assay: Agonist activity at TGR5 in rat Primary intestinal cell assessed as stimulation of GLP-1 secretion at 30 uM relative to control; assay type: cell-based; conditions: filed as agonist
T7 sequence (whole entry): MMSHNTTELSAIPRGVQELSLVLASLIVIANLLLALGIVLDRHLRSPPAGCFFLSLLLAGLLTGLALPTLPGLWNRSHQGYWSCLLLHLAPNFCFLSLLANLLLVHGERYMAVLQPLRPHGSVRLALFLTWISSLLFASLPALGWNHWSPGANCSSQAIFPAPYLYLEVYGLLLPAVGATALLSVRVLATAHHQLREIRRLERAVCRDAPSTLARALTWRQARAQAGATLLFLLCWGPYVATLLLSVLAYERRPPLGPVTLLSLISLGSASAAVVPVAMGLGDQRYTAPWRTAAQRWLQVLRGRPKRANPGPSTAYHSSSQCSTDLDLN

[19] = biological target: T4, G-protein coupled bile acid receptor 1 (Homo sapiens); assay: Agonist activity at human TGR5 transfected in CHO cells assessed as increase in cAMP production at 1 uM relative to control; assay type: cell-based; conditions: filed as agonist
[20] = biological target: T4, G-protein coupled bile acid receptor 1 (Homo sapiens); assay: Agonist activity at human TGR5 transfected in human NCI-H716 cells assessed as increase in GLP-1 secretion at 5 uM relative to control; assay type: cell-based; conditions: filed as agonist
[21] = biological target: T4, G-protein coupled bile acid receptor 1 (Homo sapiens); assay: Agonist activity at human TGR5 transfected in human NCI-H716 cells assessed as increase in cAMP production at 10 uM relative to control; assay type: cell-based; conditions: filed as agonist
[22] = liver microsomes, read-out: CLH

Cc1c(Cl)cccc1OCCCC(=O)N1CCC(Cc2cccc(C(=O)NCCS(=O)(=O)O)c2)c2ccccc21 (stereo unspecified)
EC50 [1]: 24 nM

O=C(Nc1nnn[nH]1)c1cc(Cl)c(Oc2ncccc2C(=O)N2CCN(C3CC3)c3ccccc32)cc1Cl
EC50 ([2]; read-out: EC50): 76 nM
microsomal CLint [3, 22]: 56 µL/min/mg
EC50 [4]: 350 nM
microsomal CLint [5, 22]: 56 µL/min/mg
solubility [6]: 535 µg/mL (≈ 970 µM)

Cc1ccccc1[C@H](C/C(=N/O)c1ccc(=O)n(C)n1)c1ccc(Br)cc1
EC50 [7]: 6 nM

O=C(c1cccnc1Oc1cccc(C(F)(F)F)c1)N1CCCc2ccccc21
EC50 [4]: 2020 nM

Cc1ccccc1[C@H](C/C(=N/O)C1CCC(=O)N(C)C1)c1ccc(S(C)(=O)=O)cc1 (stereo partly specified)
EC50 [7]: 29 nM

Cc1ccc(-c2csc3nnc(SCc4c(F)cccc4Cl)n23)cc1
EC50 [8]: < 0.5 nM

Brc1ccc(CCNCc2cc3ccncc3nc2-c2ccsc2)cc1
EC50 [8]: < 10000 nM

FC(F)(F)c1ccc(CNCc2cc3ccsc3nc2-c2ccsc2)cc1
EC50 [8]: < 10000 nM

Cc1cc(/C(C[C@H](c2ccc(C3C[C@@H]4C(C(=O)O)[C@@H]4C3)cc2)c2ccc(F)cc2F)=N\O)ccn1 (stereo partly specified)
EC50 [7]: 1 nM

O=C(O)c1ccc2nc(N3CCC(OCc4c([C@H]5CCCC[C@@H]5C(F)(F)F)noc4C4CC4)CC3)sc2c1 (stereo in doubt; form 2)
EC50 (Bile acid receptor [9]): 245 nM

O=c1c2nccnc2nc(-c2ccc(F)cc2)n1CCc1ccc(Cl)cc1
EC50 [8]: < 10000 nM

O=c1c2cccnc2nc(-c2cncc(Cl)c2)n1NCc1ccc(Cl)cc1F
EC50 [8]: < 10000 nM

Fc1ccccc1-c1ccncc1CN1C(c2ccco2)=NOC1c1cc(C(F)(F)F)cc(C(F)(F)F)c1 (stereo unspecified)
Activity [10]: 102%
EC50 [11]: 15 nM

O=C(Nc1cc(Cl)ccc1-c1nc2cc(F)c(F)cc2n1CC1CCCCC1)c1ccc(-c2nnn[nH]2)cc1F
IC50 (Bile acid receptor [12]): 0.4 nM

COc1ccc(C(C)(C)c2nnc(SCCOc3ccc(-n4cnc(-c5ccsc5)c4)cc3)n2-c2ccc(F)cc2)cc1OC
Activity [13]: 147%

C=C1[C@@H](O)CC[C@]2(C)C3CC[C@@]4(C)C(=C3CC[C@@H]12)CC[C@@H]4[C@H](C)CC[C@H](CC)C(C)C (stereo partly specified)
IC50 (Bile acid receptor [14]): 40000 nM

Fc1cccc(F)c1-c1ccncc1CN1C(c2ccco2)=NOC1c1ccccc1 (stereo unspecified)
EC50 [8]: < 100 nM

COc1ccc(C(C)(C)c2cnc(SCCNCc3cccnc3)n2-c2ccc(F)cc2)cc1OC
Activity [13]: 129%
Activity [15]: 320%

Fc1ccccc1-c1ccncc1CN1C(c2ccccc2)=NOC1c1cc(C(F)(F)F)cc(C(F)(F)F)c1 (stereo unspecified)
Activity [10]: 93%
EC50 [11]: 79 nM

CC[C@H]1[C@@H](O)C2C3CC[C@H](C(C)CCOS(=O)(=O)O)[C@@]3(C)CCC2[C@@]2(C)CC[C@@H](O)C[C@@H]12 (stereo partly specified)
Activity [16]: 30 nM

O=C(c1cc(C(F)(F)F)cc(C(F)(F)F)c1)N1CCCn2cccc2C1c1ccccc1 (stereo unspecified)
EC50 [8]: < 10000 nM

CC(C)c1onc(-c2c(Cl)cccc2Cl)c1COc1ccn(Cc2ccc(-c3ccccc3C(=O)O)cc2)n1
EC50 (Bile acid receptor [17]): 6000 nM

CC(C)n1ncc2cc(CNCc3ccc(C(F)(F)F)cc3)c(-c3ccsc3)cc21
EC50 [8]: < 10000 nM

CN1CC(C)(C)N(C(=O)COc2cccc3cnccc23)c2ccc(F)cc21
Activity [18]: 251%

COc1ccc(S(=O)(=O)N2CCCN(S(=O)(=O)c3ccc(OC)c(OC)c3)CC2)cc1OC [SB-756050]
EC50 ([2]; read-out: pEC50 (converted)): 1000 nM

O=C(c1cccnc1Oc1cc(Cl)ccc1Cl)N1CCCc2ccccc21
CLH ([3]; microsomes): 1418 mL/min/g
EC50 [4]: 2560 nM
CLH ([5]; microsomes): 2134 mL/min/g
solubility [6]: < 1 µg/mL

Fc1cccc(F)c1-c1ccncc1CN1C(c2ccco2)=NO[C@@H]1c1cc(C(F)(F)F)cc(C(F)(F)F)c1Cl
Activity [10]: 96%
EC50 [11]: 1.4 nM

CO[C@H](c1ccccc1)c1nc2cc(F)c(F)cc2n1C(C(=O)Nc1ccc(C(=O)O)cc1C)C1CCCCC1 (stereo partly specified)
IC50 (Bile acid receptor [12]): 20 nM

COc1ccc(C(C)(C)c2cnc(SCCOc3c(F)cccc3Cl)n2-c2ccc(F)cc2)cc1OC
Activity [13]: 97%

O=C(c1cccnc1Oc1cc(Cl)ccc1Cl)N1CCN(C2COC2)c2ccccc21
solubility [6]: 14 µg/mL (≈ 30.7 µM)

Cc1c(Cl)cccc1OCCCC(=O)N1CCCc2c(-c3cnn(Cc4c(F)cc(C(=O)NCCS(=O)(=O)O)cc4Cl)c3)cccc21
EC50 [1]: 23 nM

O=C(O)c1ccc2cc(N3C4CCC3CC(OCc3c(-c5ccccc5OC(F)(F)F)noc3C3CC3)C4)ccc2c1 (stereo unspecified)
EC50 (Bile acid receptor [9]): 1 nM

O=C(O)c1ccccc1-c1ccc(Cn2ccc(OCc3c(-c4c(Cl)cccc4Cl)noc3-c3cccs3)n2)cc1
IC50 (Bile acid receptor [17]): 4200 nM

O=C(c1cc(C(F)(F)F)cc(C(F)(F)F)c1)N1CCOc2nccc(-c3ccccc3)c2C1
Activity [19]: 100%

COc1cc(F)ccc1-c1ccncc1N(C)C(=O)c1cc(C(F)(F)F)cc(S(=O)(=O)N2CC3(COC3)C2)c1
EC50 [7]: 9 nM

N#Cc1cc(F)ccc1N(C(=O)COc1cccc2cnccc12)c1ccc(F)cc1Cl
EC50 [8]: 7370 nM

Fc1ccccc1-c1ccncc1CN1C(c2ccco2)=NOC1c1cc(C(F)(F)F)cc(C(F)(F)F)c1Cl (stereo unspecified)
Activity [10]: 90%
EC50 [11]: 5.6 nM

CNc1cccc([C@H]2O[C@H](CC(=O)Nc3ccccc3F)C(=O)N(CC(C)C)c3ccccc32)c1
Activity [20]: 157%
Activity [21]: 100%

Cc1noc2cc(Cl)c(Oc3ccncc3C(=O)N3CCN(C4CC4)c4ccccc43)cc12
EC50 [8]: 0.43 nM

Fc1ccc(-n2c(COc3cccc4cnccc34)nc3ccccc32)c(Cl)c1
EC50 [8]: 229 nM

CC(C)c1onc(-c2c(Cl)cccc2Cl)c1COc1ccn(-c2cccc(C(=O)O)c2)n1
EC50 (Bile acid receptor [17]): 80000 nM

O=C(O)c1ccc2nc(N3CCC(OCc4c([C@H]5CCCC[C@@H]5C(F)(F)F)noc4C4CC4)CC3)sc2c1 (stereo in doubt; form 1)
EC50 (Bile acid receptor [9]): 64 nM

CC[C@@H](CC[C@@H](C)[C@H]1CCC2=C3CC[C@H]4C(C)=CCC[C@]4(C)C3CC[C@@]21C)C(C)C (stereo partly specified)
IC50 (Bile acid receptor [14]): 35000 nM
